How the values were obtained:
heptaarginine = experiment: ITC, POM into heptaarginine; type: binding; settings: 10 mM Tris; for Ka/ 107, heptaarginine: pH 7.4, 298.15 K, value is Ka divided by 10^7, duplicates; for Ka, heptaarginine (Figure 2c,d): pH 7.4, POM/oligoarginine 100/8 and 200/10 µM
Description: (§1) All experiments were performed with a VP‐ITC MicroCalorimeter from MicroCal, Int,. at atmospheric pressure and 298.15 K. Solutions were degassed and thermostatic prior to the titration experiments in a ThermoVac accessory. A constant volume of POM ([PVW11]^4‒ or [SiMoW11]^4‒) (10 µL per injection) was injected into the oligopeptide solution (heptaArg, protamine, polyArg or heptaLys) in 10 mM Tris, pH 7.4 to determine the apparent binding affinity of [PVW11]^4‒ and [SiMoW11]^4‒ with the oligopeptides. Dilution heats were determined by titration of the POM into buffer and subtracted from the reaction heat. The neat reaction heat was fitted with Origin 7.0 software by using the “one‐set‐of‐sites” model to obtain the complex stability constant (K a) and molar reaction enthalpy (∆H°). The free energy (∆G°) and entropy changes (∆S°) were obtained according to the relation: ∆G° = −RTlnK a = ∆H°−T∆S°.
(§2) 4. Supramolecular interactions
(§3) Figure S10. Microcalorimetric titrations in 10 mM Tris, pH 7.4: Raw ITC data (top) for the sequential injections of POM solution into an oligoarginine solution, and apparent reaction heats (bottom) obtained from the integration of the calorimetric traces. […]
(§4) values and ± 0.5 kcal mol‒1 for ΔH and TΔS (duplicate measurements). Note that none of these interactions lead to any precipitation or aggregates, confirmed by the absence of any detectable signal by DLS. […]
Figure S11. Microcalorimetric titrations in 10 mM Tris, pH 7.4: Raw ITC data (top) for the sequential injections of POM solution into a heptalysine solution, and apparent reaction heats (bottom) obtained from the integration of the calorimetric traces. POM/heptalysine concentrations in µM: a, 200/8 and b, 150/10. Error data is 5% for the n values and ± 0.5 kcal mol‒1 for ΔH and TΔS (duplicate […]
Table S6. Binding constants (Ka in M‒1) and thermodinamic data (in kcal mol‒1) measured for the complex formation between the stable and active POMs and oligoarginines in 10 mM Tris, pH 7.4. a) […]
a) Error data is 5% for the n values and ± 0.5 kcal mol‒1 for ΔH and TΔS (duplicate measurements).

protamine = experiment: ITC, POM into protamine; type: binding; settings: 10 mM Tris, pH 7.4, value is Ka divided by 10^7
Description: as §1, §2, §3, §4

cationic oligopeptides = experiment: ITC, POM with the peptides (general statement); type: binding
Description: To affect membrane transport, any carrier needs to display an affinity toward the cargo as well as toward the lipid bilayer. Accordingly, the interaction between [PVW11]^4‒ and [SiMoW11]^4‒ and the peptides was analyzed by isothermal titration calorimetry (ITC, Figure 2c,d; and Figures S10 and S11, Supporting Information). […] (enthalpically driven, interaction with the peptide backbones, Table S6, Supporting Information) and Coulombic interactions (interaction with arginine and lysine side chains). The strong but reversible intermolecular interactions between the low‐charged POMs and the cationic oligopeptides present an interesting finding, which was measured for both, oligo‐ and polypeptides. Previous ITC studies have focused only on the binding of proteins with highly charged and therefore weakly chaotropic POMs (n < −6, Table S3, Supporting Information), where electrostatic interactions were implied as main driving force.^[ [65], [66], [67], [68], [69], [70], [71], [72], [73] ^]
All experiments were performed with a VP‐ITC MicroCalorimeter from MicroCal, Int,. at atmospheric pressure and 298.15 K. Solutions were degassed and thermostatic prior to the titration experiments in a ThermoVac accessory. […] Dilution heats were determined by titration of the POM into buffer and subtracted from the reaction heat. […]

polyarginine = experiment: ITC, POM into polyarginine; type: binding; settings: 10 mM Tris, pH 7.4, value is Ka divided by 10^7
Description: as §1, §2, §3, §4

[1] = Membrane disruption of liposomes by POM alone (CF fluorescence, DLS); type: biochemical
Description: It should be noted that the addition of POMs alone (without cargo) retained the stability of the liposomes in the studied concentration range (up to 100 µM), that is, neither an increase in CF fluorescence nor changes in size distribution as obtained by dynamic light scattering experiments (DLS, see Figure S4, Supporting Information) were observed, which would have signaled membrane rupture. These negative controls allowed us to proceed to the carrier experiments, with added cargo.
DLS experiments of the vesicles were carried out on a Malvern Instruments DTS Nano 2000 Zeta‐Sizer. A POM concentration of 100 µM was chosen as default, since this is the highest concentration at which membrane transport was evaluated. The cargo concentration was set to be same as in the transport experiments, namely 10 µM for heptaarginine, 1 µM for protamine, and 0.1 µM for polyarginine. Note that the POMs themselves, with a size of ≈1 nm, fall below the detection limit (>10 nm) of the DLS instrument.
Figure S3. Transport activity, Y, for polyarginine (0.1 µM) in EYPC[…]CF liposomes as a function of the concentration of the different evaluated POMs. Solid lines correspond to the resulting fit with the Hill equation. Blue squares are data obtained at neutral pH, and red stars data obtained at acidic pH.
Table S4. Membrane transport parametersa) of active POMs at neutralb) and acidicc) pH.
HeptaArgd) Protaminee) PolyArgf) carrier pH Hydrolysis/Stability
Ymax [%]g) EC50h) [µM] E i) Ymax [%] EC50 [µM] E Ymax [%] EC50 [µM] E […]
Figure S5. Transport kinetics (left pannels), dose response curves (middle pannels) for cargo transport, and size distribution (by DLS, right pannels) for [PW12]3‒ (top) and [SiW12]4‒ (bottom), measured with EYPC[…]CF liposomes at pH 7.4, but preserving the POM solution at pH 1.2 before addition. As shown in panel a, the addition of [PW12]3‒ alone gave a fluorescence increase, pointing to membrane disruption, which was confirmed by DLS (panel c). […]

Substance	Ka/ 107, heptaarginine (heptaarginine) [M‒1]	Ka, heptaarginine (Figure 2c,d) (heptaarginine) [M⁻¹]	Ka/ 107, protamine (protamine) [M‒1]	Supramolecular interaction with the peptides (order of magnitude) (cationic oligopeptides)	Ka/ 107, polyarginine (polyarginine) [M‒1]	Membrane disruption with POM solution kept at pH 1.2 ([1]; POM alone added to liposomes, POM solution kept at pH 1.2, CF fluorescence)	Vesicle lysis at higher concentrations ([1]; higher than 100 µM POM, 10 mM Tris, 107 mM NaCl, pH 7.4)
K4[α‐P^VV^VW^VI 11O40]·4H2O [[PVW11]^4‒]	5.7	5.7e+07	25	~10^7 M ^−1	3.5	–	–
Na3[α‐P^VW^VI 12O40]·nH2O [[PW12]^3‒]	–	–	–	–	–	strong interaction and membrane disruption	led to vesicle lysis
K4[α‐Si^IVMo^VIW^VI 11O40]·24H2O [[SiMoW11]^4‒]	0.6	6.3e+06	1.7	~10^7 M ^−1	1.6	–	–

From article PMC11475408, “All‐Inorganic Polyoxometalates Act as Superchaotropic Membrane Carriers” (Advanced Materials (Deerfield Beach, Fla.), 2023)
